From patent US5380761A, “Transdermal compositions” (Chinoin Gyogyszer- ES Vegyeszeti Termekek Gyara RT., priority 1991, dated 1995)

Test system: MAO-A
Experiment: MAO-A inhibition in domestic pig brain nucleus free homogenate (14C-5-HT substrate)
Format: in vivo
Conditions: p. os 10 mg, 96 h
Protocol: In further experiments we determined in domestic pigs The MAO activity in the brain and the platelet MAO-B activity.
The experiments were carried out on female (big white) domestic pigs, weighing 25-30 kg. The pigs were caged separately during the experiments, and the same food was supplied, which was used formerly.
Blood samples were taken for the determination of MAO-B activity at: 0, 3, 6, 24, 48, 72 and 96 h. At 96 h after blood sampling the pigs were killed and the MAO-B and MAO-A activity was determined in their dissected brain.
The times of blood sampling were at: 0, 3, 6, 24 and 48 h. The transdermal preparations were removed at 24 h. […] The pigs were killed at 48 h and MAO-A and MAO-B activity of the brain was determined.
Blood samples were taken at: 0, 3, 6, 24, 48 and 72 h. The patches were removed at 48 h and the whole procedure described at group 2 was accomplished.
MAO activity was measured radiometrically according to the methods of Wurtman and Axelrod (Biochem. Pharmacol. 12. 1414-19; 1963) with a slight modification (K. Magyar in: Monoamine Oxidases and their Selective Inhibition. Ed.: K. Magyar, Pergamon Press, Akademiai Kiado, Budapest 11-21; 1980).

## C#CCN(C)[C@H](C)Cc1ccccc1 [(-)-Deprenyl]
  inhibition of MAO-activity (%) as compared to the control, brain, 14C-5-HT: 20.14 ± 6.0%
